Laboratory results from PubChem BioAssay (NCI).
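Five concentrations, 48 hours, 96-well plates. TGI denotes the concentration required for complete inhibition of growth.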

Columns and labels:
Test in all cases: NCI-60 cell line screen, 48 h
[1] = system: OVCAR-3 ovarian
[2] = system: CAKI-1 renal
[3] = system: OVCAR-8 ovarian
[4] = system: NCI-H226 lung
[5] = system: SW-620 colon
[6] = system: SK-OV-3 ovarian
[7] = system: KM20L2 colon
[8] = system: UACC-257 melanoma
[9] = system: UO-31 renal
[10] = system: TK-10 renal
[11] = system: KM12 colon
[12] = system: U251 CNS
[13] = system: A549 NSCLC
[14] = system: DLD-1 colon
[15] = system: NCI-H23 lung
[16] = system: SF-539 CNS
[17] = system: M14 melanoma
[18] = system: SR leukemia
[19] = system: SF-295 CNS
[20] = system: SK-MEL-28 melanoma
[21] = system: UACC-62 melanoma
[22] = system: OVCAR-4 ovarian
[23] = system: SF-268 CNS
[24] = system: HL-60(TB) leukemia
[25] = system: HOP-92 NSCLC
[26] = system: SK-MEL-5 melanoma
[27] = system: SNB-75 CNS
[28] = system: EKVX NSCLC
[29] = system: RPMI-8226 leukemia
[30] = system: M19-MEL melanoma
[31] = system: MALME-3M melanoma
[32] = system: LXFL 529 NSCLC
[33] = system: COLO 205 colon
[34] = system: HCT-15 colon
[35] = system: MOLT-4 leukemia
[36] = system: DMS 273 small cell lung
[37] = system: LOX IMVI melanoma
[38] = system: RXF-631 renal
[39] = system: DMS 114 small cell lung
[40] = system: 786-0 renal
[41] = system: HOP-62 NSCLC
[42] = system: SNB-78 CNS
[43] = system: K-562 leukemia
[44] = system: SNB-19 CNS
[45] = system: NCI-H460 lung
[46] = system: HT29 colon
[47] = system: A498 renal
[48] = system: RXF 393 renal
[49] = system: OVCAR-5 ovarian
[50] = system: HCC-2998 colon
[51] = system: CCRF-CEM leukemia
[52] = system: SK-MEL-2 melanoma
[53] = system: HOP-18 NSCLC
[54] = system: IGROV1 ovarian
[55] = system: ACHN renal
[56] = system: SN12C renal
[57] = system: XF 498 CNS
[58] = system: NCI-H522 lung
[59] = system: HCT-116 colon

Measured: TGI

Cn1c(=O)cc2[nH]c3ccccc3n2c1=O
38.4 µM: [37]
46.3 µM: [16]
62.9 µM: [40]
64.2 µM: [48]
> 100 µM: [1] | [2] | [3] | [4] | [6] | [7] | [8] | [9] | [10] | [11] | [13] | [14] | [15] | [17] | [18] | [19] | [20] | [21] | [22] | [23] | [24] | [25] | [26] | [27] | [28] | [29] | [30] | [31] | [32] | [34] | [35] | [39] | [41] | [42] | [43] | [44] | [45] | [46] | [47] | [49] | [50] | [51] | [52] | [53] | [54] | [55]
45.3 µM: [36]
29.9 µM: [33]
61.3 µM: [5]
31.2 µM: [12]
86.5 µM: [38]

CC1=NN2C(c3ccc([N+](=O)[O-])cc3)=CSC2=NC(C)(C)C1
> 100 µM: [1] | [3] | [4] | [5] | [6] | [7] | [8] | [9] | [10] | [11] | [12] | [13] | [14] | [15] | [16] | [17] | [18] | [56] | [19] | [20] | [21] | [22] | [23] | [24] | [25] | [26] | [27] | [28] | [57] | [29] | [30] | [31] | [32] | [33] | [34] | [35] | [36] | [37] | [38] | [39] | [40] | [41] | [42] | [43] | [44] | [45] | [46] | [47] | [58] | [48] | [49] | [50] | [51] | [52] | [53] | [54] | [59] | [55]
